This assay relates to Nematospiroides dubius. The experiment in a line: Evaluation (Efficacy) Test in Mice, Nematospiroides dubius. Format: in vivo. As to conditions: for inhibition in vivo at 0.05 %: 0.05 % diet; for inhibition in vivo at 0.1 %: 0.1 % diet. From the text:
The primary target parasite of this test is Nematospiroides dubius (Family: Heligmosomidae), which is phylogenetically related to certain economically important parasites of domestic and farm animals. Mice are orally inoculated with 20 to 30 infective N. dubius larvae. Mixed infections are obtained by subsequent inoculation with Aspicularis tetraptera and Hymenolepis nana. Eighteen days after inoculation the mice are divided into groups of four. Each group receives one compound at a specified dose rate, either as a single gavage dose or fed continually in the feed. Four groups of five mice each are utilized as infected, untreated controls. […] Those mice receiving single oral doses (SOD) or a single subcutaneous injection (Sc) of 5 mg./kg. to 100 mg./kg. of animal body weight of the compound under test are treated 22 days after inoculation. Eight days after start of treatment (drug diet) and 4 days post treatment (single dose SOD or Sc), the mice are necropsied, the worms recovered and counted. Percent efficacy for Nematospiroides is calculated using the formula: % Efficacy Equals [formula]
The diet used in the test procedures is a standard commercial mouse chow containing meat and bone meal, dried skimmed milk, wheat germ meal, fish meal, animal liver meal, dried beet pulp, ground extended corn, oat middlings, soybean meal, dehydrated alfalfa meal, cane molasses. animal fat preserved with BHA, vitamin B-12 supplement, calcium panthotenate, choline chloride, folic acid, riboflavin supplement, brewer's dried yeast, thiamine, niacin, vitamin A supplement, D activated plant sterol, vitamin E supplement, dicalcium phosphate, iodized salt, ferric ammonium citrate, iron oxide, manganous oxide, cobalt carbonate, copper oxide and zinc oxide; and the desired level of test compound.
When the drug is administered as a single oral dose, the drug is weighed and suspended in 0.2% agar, thoroughly mixed and orally introduced at the required volume.

Setting [1] is: Heligmosomoides polygyrus, po, 168 h, drug diet, 7 days, read-out: % Efficacy N.d.
Setting [2] is: Heligmosomoides polygyrus, po, single oral dose, read-out: % Efficacy N.d.
[3] abbreviates: Heligmosomoides polygyrus, po, 168 h, drug diet, 0.025 % diet, 7 days, read-out: % Efficacy N.d.
[4] abbreviates: Heligmosomoides polygyrus, po, single oral dose, 25 mg/kg, read-out: % Efficacy N.d.
Where [5] appears, read: Heligmosomoides polygyrus, sc, subcutaneous, 10 mg/kg, read-out: % Efficacy N.d.
Where [6] appears, read: Heligmosomoides polygyrus, sc, subcutaneous, 25 mg/kg, read-out: % Efficacy N.d.
[7] abbreviates: drug diet, 0.006 % diet, 7 days.
Setting [8] is: drug diet, 0.0125 % diet, 7 days.

The structures appear in SMILES notation. Like-named read-outs stand apart in the source and are kept apart here.

In the case of `Cc1ccc(P(=C[P+](c2ccccc2)(c2ccccc2)c2ccccc2)(c2ccccc2)c2ccccc2)cc1`, under setting [1], the inhibition in vivo at 0.05 % was 59% and the inhibition in vivo at 0.1 % is 67%. Also, under setting [2], the inhibition in vivo at 50 mg/kg was found to be 31% and the inhibition in vivo at 100 mg/kg came out at 67%.
For the molecule `Cc1ccc([P+](C[P+](c2ccccc2)(c2ccccc2)c2ccccc2)(c2ccccc2)c2ccccc2)cc1` [P,P,P,P',P'-Pentaphenyl P'-p-tolyl-P,P' Methylenediphosphonium Dibromide], the inhibition in vivo at 0.025 % under setting [3] stood at 60%. In addition, under setting [1], the inhibition in vivo at 0.05 % was determined as 80%. The inhibition in vivo at 25 mg/kg under setting [4] turned out to be 57%. Moreover, under setting [2], the inhibition in vivo at 50 mg/kg is 64% and the inhibition in vivo at 100 mg/kg worked out at 77%.
Turning to `c1ccc(C[P+](C[P+](Cc2ccccc2)(c2ccccc2)c2ccccc2)(c2ccccc2)c2ccccc2)cc1` [Type I, R1 Benzyl, X Br, Methylenebis(benzyldiphenyl)phosphonium Dibromide], the inhibition in vivo at 0.05 % under setting [1] is 73%. Moreover, under setting [2], the inhibition in vivo at 50 mg/kg was 79% and the inhibition in vivo at 100 mg/kg was found to be 80%.
In the case of `c1ccc([P+](C[P+](c2ccccc2)(c2ccccc2)c2ccccc2)(c2ccccc2)c2ccccc2)cc1` [Type I, R1 Phenyl, X Br, Methylenebis Triphenylphosphonium Dibromide], under setting [3], the inhibition in vivo at 0.025 % was 100%. Besides, the inhibition in vivo at 0.125 % (Heligmosomoides polygyrus, po, 168 h, drug diet, 0.125 % diet, 7 days, read-out: % Efficacy N.d.) is 94%. Besides, the inhibition in vivo at 10 mg/kg under setting [5] was 42%. In addition, under setting [6], the inhibition in vivo at 25 mg/kg was found to be 84%. Also, the “% Efficacy N.d.” value is, setting by setting: under setting [7], 78%; (single oral dose, 5 mg/kg) 49%; (single oral dose, 10 mg/kg) 51.5%; (single oral dose, 25 mg/kg) 95.5%.
Regarding `c1ccc([P+](C[P+](c2ccccc2)(c2ccccc2)c2ccccc2)(c2ccccc2)c2ccccc2)cc1` [Type I, R1 Phenyl, X Cl, methylenebis triphenylphosphonium dichloride], the inhibition in vivo at 0.006 % (Heligmosomoides polygyrus, po, 168 h, drug diet, 0.006 % diet, 7 days, read-out: % Efficacy N.d.) is 85%. The inhibition in vivo at 0.0125 % (Heligmosomoides polygyrus, po, 168 h, drug diet, 0.0125 % diet, 7 days, read-out: % Efficacy N.d.) came to 100%. Besides, the inhibition in vivo at 25 mg/kg under setting [4] is 96.5%. The “% Efficacy N.d.” value is, setting by setting: (single oral dose, 5 mg/kg) 85%; (single oral dose, 10 mg/kg) 84%.
Consider `Cc1ccc([P+](C[P+](c2ccccc2)(c2ccccc2)c2ccc(C)cc2)(c2ccccc2)c2ccccc2)cc1` [Type I, R1 p-tolyl, X Br, Methylenebis(diphenyl-p-tolyl) Phosphonium Dibromide], for which the inhibition in vivo at 0.1 % under setting [1] is 57%. Moreover, under setting [2], the inhibition in vivo at 50 mg/kg was 57% and the inhibition in vivo at 100 mg/kg turned out to be 75%.
Take `C(=P(c1ccccc1)(c1ccccc1)c1ccccc1)[P+](c1ccccc1)(c1ccccc1)c1ccccc1` [Type II, R1 Phenyl, X 2,6-Diiodo-4-nitrophenol] [Triphenyl[(triphenylphosphoranylidene)methyl]-phosphonium-2,6-diiodo-4-nitrophenolate]: the “% Efficacy N.d.” value is listed as 41% under setting [7]; 86.5% under setting [8]; 99.5% (drug diet, 0.025 % diet, 7 days); 36.7% (single oral dose, 5 mg/kg, dosage weight is that of the cation); 44.7% (single oral dose, 10 mg/kg, dosage weight is that of the cation); 88.5% (single oral dose, 25 mg/kg, dosage weight is that of the cation).
`C(=P(c1ccccc1)(c1ccccc1)c1ccccc1)[P+](c1ccccc1)(c1ccccc1)c1ccccc1.[Br-]` [Type II, R1 Phenyl, X Br, Triphenyl[(triphenylphosphoranylidene)methyl]-phosphonium Bromide]: the inhibition in vivo at 5 mg/kg (Heligmosomoides polygyrus, po, single oral dose, 5 mg/kg, read-out: % Efficacy N.d.) came out at 32.5%. In addition, the inhibition in vivo at 10 mg/kg reads like this: (Heligmosomoides polygyrus, po, single oral dose, 10 mg/kg, read-out: % Efficacy N.d.) 65%; under setting [5], 74%. Further, under setting [6], the inhibition in vivo at 25 mg/kg came to 94%. Further, the “% Efficacy N.d.” value is, setting by setting: under setting [7], 94%; under setting [8], 100%; (single oral dose, 25 mg/kg) 89%.

These data come from patent publication US3957978A, “Phosphonium anti-parasitics” (American Cyanamid Company, priority 1975, dated 1976).
